{"source": "paper PMC4552745", "about": "“Novel Gallate Triphenylphosphonium Derivatives with Potent Antichagasic Activity” (PLoS ONE, 2015)", "key": {"VERO cells": {"tested_on": "VERO cells", "assay": "MTT reduction viability assay on VERO cells", "format": "cell-based", "settings": "Chlorocebus sabaeus, 24 hours exposure, mean ± SD", "protocol": "(§1) The effect of the drugs on parasite viability was evaluated using the tetrazolium salt (MTT) reduction assay. […] Alternatively, VERO cells attached to the surface of 96-well plates were washed and incubated with MTT (5 mg/mL). After incubation for 4 h at 37°C, the generated formazan crystals were dissolved with 100 μL of 10% (w/v) sodium dodecyl sulfate (SDS) in 0.01 M HCl. The plates were then incubated overnight at 37°C, and the optical density (OD) was determined using a microplate reader (Labsystems Multiskan MS, Finland) at 570 nm. Under these conditions, the OD is directly proportional to the number of viable cells in each well [33, 34]. All of the experiments were performed at least three times. […] The data from each experiment were plotted using the formazan absorbance versus the log of the concentration, and the plot was fitted to the dose-response (four-parameters) equation using the software Graph Pad Prism V5.0, obtaining the EC50 value per drug and per experiment. The data are expressed as the mean ± DS of the EC50s obtained from each experiment."}, "[1]": {"tested_on": "T. cruzi trypomastigotes (Y strain) mitochondrial permeability transition pore", "assay": "Mitochondrial permeability transition pore opening (calcein AM / CoCl2)", "format": "cell-based, Trypanosoma cruzi", "settings": "1 hour, Fig 6B", "protocol": "The opening of mitochondrial permeability transition pores was assessed using the calcein AM probe, adapting the method described by Huang et al (2014). Calcein-AM is a lipophilic probe that can enter the cell, including the mitochondria, and is then cleaved by cellular esterases, releasing the fluorescent probe calcein. T. cruzi trypomastigotes (Y strain, 5 x 10^6 parasites/mL) were stained with 100 nM calcein AM (Molecular Probes, Applied Biosytems, USA) and incubated at 37°C for 15 min in the presence of […] of CoCl2 to quench the cytosolic fluorescence of calcein. Then, the parasites were washed with PBS and resuspended in RPMI medium, without phenol red, supplemented with 0.3 mM of Ca^+2. The parasites were then seeded in 24-well plates and exposed to the different compounds (TPP^+-C8, TPP^+-C10, TPP^+-C11, and TPP^+-C12) at 1 or 5 μM for 1 hour. As a positive control, one group was exposed to ionomycin (0.5 μM). The samples were measured using a FACS Aria III flow cytometer (BD Biosciences, USA) with the 494/517 filter to detect calcein fluorescence. For every measurement, 5,000 events were recorded. The raw flow cytometry data were analyzed using FACSDiva 6.1 software (BD Biosciences). The results were analyzed using the median fluorescence intensity (MFI) from the frequency histograms. Thus, we used the median intensity of the control group (parasites incubated with calcein AM and CoCl2) to establish 100% of mitochondrial fluorescence, thereby establishing percent ratios between the treatment groups and the control."}, "[2]": {"tested_on": "T. cruzi trypomastigotes (Y strain)", "assay": "MTT reduction viability assay on isolated trypomastigotes", "format": "cell-based, Trypanosoma cruzi", "settings": "for EC50: Trypanosoma cruzi, Y strain, 24 hours exposure, MTT assay, mean ± SD, read-out: EC50 T. cruzi trypomastigote; for Selectivity index (VERO/T. cruzi): ratio of EC50 VERO cells to EC50 T. cruzi trypomastigote", "protocol": "as §1, with “Trypomastigotes (Y strain, DTU T. cruzi II) were obtained from infected VERO cells (Chlorocebus sabaeus kidney fibroblasts obtained from ATCC, ATCC number: CCL-81). The cells were exposed to trypomastigotes (Y strain) at a 3:1 density (trypomastigote:cell). The trypomastigotes were allowed to infect the cells for 24 h, and the supernatant was then extracted. The trypomastigotes were released from VERO cells at 4 days after infection. The parasites were harvested and collected for viability assays. The effect” for “The effect”"}, "[3]": {"tested_on": "T. cruzi trypomastigotes (Y strain)", "format": "cell-based", "settings": "for markers of cell death (phosphatidylserine exposure and propidium iodide permeabilization): 1 μM, 24 hours; for number of viable cells (without annexin-V or PI positivity): 24 hours, 0.1, 0.5 or 1 μM, Fig 2B", "protocol": "For these assays, 10^7 trypomastigotes (Y strain) were exposed to […] for 24 h in RPMI at 37°C and 5% CO2. The cells were then washed in phosphate-buffered saline (PBS), resuspended, and incubated with propidium iodide (PI) and Annexin-V labeled with Alexa Fluor 488. The incubation was performed using Alexa Fluor 488 Annexin V/Dead Cell Apoptosis Kit (Molecular Probes, USA) following the manufacturer’s instructions. The fluorescence of the samples was measured using a FACSAria-III flow cytometer (BD biosciences, USA) with 530/30 and 630/22 filters to detect Annexin-V and PI, respectively. For each sample, 5,000 events were recorded, and the data were analyzed using FACSDiva 6.1 software."}, "[4]": {"tested_on": "T. cruzi intracellular amastigotes in VERO cells", "assay": "DAPI staining and intracellular amastigote quantification in infected VERO cells", "format": "cell-based, Trypanosoma cruzi", "settings": "1 μM, 48 hours, control 12.9 ± 2.2", "protocol": "VERO (Chlorocebus sabaeus kidney fibroblasts, ATCC number: CCL-81) cells were exposed to T. cruzi trypomastigotes (Y strain) at a 5:1 ratio (trypomastigotes:cells) for 24 hours. The cells were then washed and treated with different compounds, at 0.1 and 1 μM, for 48 hours. The cells were washed and fixed in cold methanol (70%) overnight; the fixed cells were washed, and 1 mL of PBS (pH 7.4) was added. The DNA was stained with DAPI (NucBlue, Molecular Probes, USA) following the manufacturer’s instructions. The cells were photographed using a Nikon Eclipse 400 fluorescence microscope at 358 nm (excitation) and 461 nm (emission). Five images were obtained per well, and each picture was analyzed by two independent researchers."}}}
{"smiles": "O=C(OCCCCCCCCCC[P+](c1ccccc1)(c1ccccc1)c1ccccc1)c1cc(O)c(O)c(O)c1.[Br-]", "note": "[TPP^+-C10, triphenyl(10-((3,4,5-trihydroxybenzoyl)oxy)-decyl) phosphonium bromide]", "values": [{"measurement": "EC50", "setting": "VERO cells", "value": "11.3 ± 0.1", "unit": "µM"}, {"measurement": "mitochondrial calcein fluorescence (median fluorescence intensity)", "setting": "[1]; 5 μM", "value": "22 % of the control"}, {"measurement": "EC50", "setting": "[2]", "value": "1 ± 0.6", "unit": "µM"}, {"measurement": "Selectivity index (VERO/T. cruzi)", "setting": "[2]", "value": 11.3}, {"measurement": "markers of cell death (phosphatidylserine exposure and propidium iodide permeabilization)", "setting": "[3]", "value": "induced markers of cell death"}, {"measurement": "number of viable cells (without annexin-V or PI positivity)", "setting": "[3]", "value": "significant decrease in the number of viable cells at concentrations of 0.5 and 1 μM"}, {"measurement": "number of amastigotes per infected cell", "setting": "[4]", "value": "2.5 ± 1.1"}]}
{"smiles": "O=C(OCCCCCCCCCCCC[P+](c1ccccc1)(c1ccccc1)c1ccccc1)c1cc(O)c(O)c(O)c1.[Br-]", "note": "[TPP^+-C12, triphenyl(12-((3,4,5-trihydroxybenzoyl)oxy)-dodecyl) phosphonium bromide]", "values": [{"measurement": "EC50", "setting": "VERO cells", "value": "10.9 ± 2.4", "unit": "µM"}, {"measurement": "mitochondrial calcein fluorescence (median fluorescence intensity)", "setting": "[1]; 1 μM", "value": "29 % of the control"}, {"measurement": "mitochondrial calcein fluorescence (median fluorescence intensity)", "setting": "[1]; 5 μM", "value": "20 % of the control"}, {"measurement": "EC50", "setting": "[2]", "value": "1 ± 0.7", "unit": "µM"}, {"measurement": "Selectivity index (VERO/T. cruzi)", "setting": "[2]", "value": 10.9}, {"measurement": "markers of cell death (phosphatidylserine exposure and propidium iodide permeabilization)", "setting": "[3]", "value": "induced markers of cell death"}, {"measurement": "number of viable cells (without annexin-V or PI positivity)", "setting": "[3]", "value": "significant decrease in the number of viable cells at concentrations of 0.5 and 1 μM"}, {"measurement": "number of amastigotes per infected cell", "setting": "[4]", "value": "2.0 ± 0.7"}]}
